Assay results reported in US20160021921A1, “PRETERM INFANT NUTRITIONAL COMPOSITIONS CONTAINING BETA-HYDROXY-BETA-METHYLBUTYRIC ACID” (ABBOTT LABORATORIES, priority 2013, published 2016).
“Also recorded” adds a separate entry of the source.

Tests used:
Type in all cases: in vivo, neonatal pigs
[1] = system: Atrogin-1; experiment: Expression of Atrogin-1 in muscles, immunoblotting; conditions: one hour
Protocol: (§1) Overnight fasted neonatal pigs (5-7 days old) were infused with HMB at 0, 20, 100, or 400 μmol·kg^−1·hr^−1 HMB. Blood plasma concentrations of the following circulating substrates were measured.
(§2) At the end of the infusion, the piglets were sacrificed and the fractional protein synthesis rates were measured by measuring ^3H incorporation into protein fractions after a flooding dose of L[4-^3H]phenylalanine using the method set forth in Garlick, P. J., “A rapid and convenient technique for measuring the rate of protein synthesis in tissues by injection of [3H]Phenylalanine,” Biochem J (1980), Vol. 192, 719-723. Activation of translation initiation was measured in the stomach, duodenum, jejunum, colon, pancreas, kidney, brain and skin. The abundance of intracellular proteins involved in signaling of protein synthesis and in processes related to protein degradation was measured in tissue homogenates by immunoblotting using commercially available antibodies.

[2] = system: elF2α; experiment: Phosphorylation of elF2α in muscles, immunoblotting; conditions: one hour
Protocol: as §1, §2

[3] = system: amino acid transporters; experiment: Level of amino acid transporters in piglet tissues; conditions: HMB-infused piglets
Protocol: as §2

[4] = system: LC3-II/LC3-I; experiment: Ratio of LC3-II/LC3-I in muscles (autophagy/lysosomal protein degradation); conditions: one hour
Protocol: as §1, §2

[5] = system: MURF1; experiment: Expression of MURF1 in muscles, immunoblotting; conditions: one hour
Protocol: as §1, §2

[6] = system: protein synthesis in skeletal muscles (longissimus dorsi, gastrocnemius, soleus, diaphragm); experiment: Fractional protein synthesis rate in skeletal muscles, L[4-3H]phenylalanine flooding dose
Protocol: as §1, §2

[7] = system: eEF2; experiment: Phosphorylation of eEF2 in muscles, immunoblotting; conditions: one hour
Protocol: as §1, §2

[8] = system: e1F4E•e1F4G complex; experiment: Formation of the active e1F4E•e1F4G complex in muscles (FIG. 11); conditions: one hour
Protocol: as §1, §2

[9] = system: S6K1; experiment: Phosphorylation of S6K1 in muscles, immunoblotting; conditions: one hour
Protocol: as §1, §2

[10] = system: 4EBP1; experiment: Phosphorylation of 4EBP1 in muscles, immunoblotting; conditions: one hour
Protocol: as §1, §2

[11] = system: protein synthesis in the lung and spleen; experiment: Fractional protein synthesis rate in lung and spleen; conditions: 20 μmol·kg^−1·hr^−1 HMB for one hour
Protocol: as §1, §2

[12] = 20 μmol·kg^−1·hr^−1 HMB, diaphragm
[13] = 20 μmol·kg^−1·hr^−1 HMB, longissimus dorsi, gastrocnemius, soleus
[14] = 100 μmol·kg^−1·hr^−1 HMB, diaphragm
[15] = 100 μmol·kg^−1·hr^−1 HMB, longissimus dorsi, gastrocnemius, soleus

## CC(C)(O)CC(=O)O [HMB, beta-hydroxy-beta-methylbutyric acid]
[1]; 20 μmol·kg^−1·hr^−1 HMB
  expression of Atrogin-1: did not affect
[1]; 100 μmol·kg^−1·hr^−1 HMB
  expression of Atrogin-1: did not affect
[2]; 20 μmol·kg^−1·hr^−1 HMB
  phosphorylation of elF2a: did not affect
[2]; 100 μmol·kg^−1·hr^−1 HMB
  phosphorylation of elF2a: did not affect
[3]
  level of amino acid transporters: did not affect
[4]; 20 μmol·kg^−1·hr^−1 HMB
  ratio of LC3-II/LC3-I: did not affect
[4]; 100 μmol·kg^−1·hr^−1 HMB
  ratio of LC3-II/LC3-I: did not affect
[5]; 20 μmol·kg^−1·hr^−1 HMB
  expression of MURF1: did not affect
[5]; 100 μmol·kg^−1·hr^−1 HMB
  expression of MURF1: did not affect
[6]; 20 μmol·kg^−1·hr^−1 HMB, longissimus dorsi, gastrocnemius, soleus, diaphragm, P<0.05
  fractional rate of protein synthesis: increased; also recorded: greatest impact
[6]; 100 μmol·kg^−1·hr^−1 HMB, gastrocnemius, soleus, diaphragm
  fractional rate of protein synthesis: not significantly
[6]; 100 μmol·kg^−1·hr^−1 HMB, longissimus dorsi muscle, P<0.05
  fractional rate of protein synthesis: increased
[6]; 400 μmol·kg^−1·hr^−1 HMB, skeletal muscles
  fractional rate of protein synthesis: no significant effect; also recorded: least impact
[6]; HMB 20, 100 or 400 vs leucine 400 μmol·kg^−1·hr^−1, longissimus dorsi, gastrocnemius, soleus, diaphragm, duodenum, brain
  effectiveness in increasing protein synthesis compared with leucine: equal to or more effective; also recorded: as effective as leucine
[7]; 20 μmol·kg^−1·hr^−1 HMB
  phosphorylation of eEF2: did not affect
[7]; 100 μmol·kg^−1·hr^−1 HMB
  phosphorylation of eEF2: did not affect
[8]; [12]
  formation of active eIF4E•eIF4G complex: increased
[8]; [13]
  formation of active eIF4E•eIF4G complex: increased
[8]; [14]
  formation of active eIF4E•eIF4G complex: not
[8]; [15]
  formation of active eIF4E•eIF4G complex: increased
[9]; [12]
  phosphorylation of S6K1: increased
[9]; [13]
  phosphorylation of S6K1: increased
[9]; [14]
  phosphorylation of S6K1: not
[9]; [15]
  phosphorylation of S6K1: increased
[10]; [12]
  phosphorylation of 4EBP1: increased
[10]; [13]
  phosphorylation of 4EBP1: increased
[10]; [14]
  phosphorylation of 4EBP1: not
[10]; [15]
  phosphorylation of 4EBP1: increased
[11]
  fractional rate of protein synthesis in lung and spleen: increased
